Assay results as given in patent US12350383B2, “Cationic lipids containing silicon” (ARBUTUS BIOPHARMA CORPORATION, priority 2018, dated 2025).

These molecules were tested on human EPO expression (assay: In vivo assay: human EPO expression in plasma after IV injection of LNP containing human EPO mRNA (human EPO ELISA)). Settings: 0.5 mg/kg LNP with human EPO mRNA, 4 h post dosing, Balb/C mice plasma (n = 4-5), cationic lipid at 55 mol %, 1.6 mol % PEG2000-C-DMA, 33% cholesterol, 11% DSPC.
Design: species or system female Balb/C mice
Method: Lipid stocks were prepared (about 7 mg/mL total lipid content) in 100% ethanol, using the lipid identities and molar ratios described. The mRNA was diluted in acetate pH 5 and nuclease-free water to reach a concentration of 0.366 mg/mL mRNA in 100 mM acetate pH 5. Equal volumes of each solution were blended at 400 mL/min in a T-connector, and diluted with about 4 volumes of PBS, pH 7.4, using the direct dilution method described in U.S. Pat. No. 9,404,127. Formulations were then placed in Slide-A-Lyzer dialysis units (MWCO 10,000) and were dialyzed overnight 10 mM Tris, 500 mM NaCl pH 8 (Tris/NaCl buffer). Following dialysis the formulations were concentrated to about 0.6 mg/mL using VivaSpin concentrator units (MWCO 100,000) and then filtered through a 0.2 um syringe filter.
The various lipids of the present invention were formulated in LNP compositions with the following molar ratios: DSPC (11%):Chol (33%):PEG2000-C-DMA (1.6%):Lipid X (55%). A composition was generated comprising the following components: • (a) nucleic acid; • (b) a mixture of cholesterol and DSPC; • (c) a conjugated lipid of formula: […]
Generally, the LNP were injected intravenously at 0.5 mg/kg to female Balb/C mice, 5-8 weeks old and blood was collected at 4-6 hours post dosing; blood is collected into K2EDTA and processed to plasma, then stored frozen at −80° C. until analysis. Activity was assayed by testing the plasma for human EPO expression using an human EPO ELISA kit either from StemCell (catalogue #01630) or R&D Systems (catalogue DEP00) following the manufacturer's instructions.
With `CCCCC/C=C\CCCO[Si](CCCN(C)C)(OCCC/C=C\CCCCC)OCCC/C=C\CCCCC` [Example 2] the EPO was 144176 mU/mL. Molecule `CCCCC/C=C\CCCO[Si](CCCCN(C)C)(OCCC/C=C\CCCCC)OCCC/C=C\CCCCC` [Example 4] has an EPO of 1300807 mU/mL. Molecule `CCCCCCCCCO[Si](CCCN(C)C)(OCCCCCCCCC)OCCCCCCCCC` [Example 6] has an EPO of 25596 mU/mL. `CCCCC/C=C\CCCO[Si](CCCCN(C)CCO)(OCCC/C=C\CCCCC)OCCC/C=C\CCCCC` [Example 8] gave an EPO of 30446 mU/mL. For `CCCCC/C=C\CCCO[Si](CCCCN1CCC(CO)CC1)(OCCC/C=C\CCCCC)OCCC/C=C\CCCCC` [Example 9], the EPO was 37927 mU/mL. For `CCCCCCCCCCO[Si](CCCCN(C)C)(OCCCCCCCCCC)OCCCCCCCCCC` [Example 11], the EPO was 256974 mU/mL. With `CCCCC/C=C\CCCC(CCC/C=C\CCCCC)O[Si](CCCCN1CCC(CO)CC1)(OC(CCC/C=C\CCCCC)CCC/C=C\CCCCC)OC(CCC/C=C\CCCCC)CCC/C=C\CCCCC` [Example 15] the EPO was 18385 mU/mL. `CN(C)CCCC[Si](OCC12CC3CC(CC(C3)C1)C2)(OCC12CC3CC(CC(C3)C1)C2)OCC12CC3CC(CC(C3)C1)C2` [Example 17] showed an EPO of 226593 mU/mL. `CCCCCCC(CCCC)CO[Si](CCCCN(C)C)(OCC(CCCC)CCCCCC)OCC(CCCC)CCCCCC` (stereo not shown) [Example 19] was tested, and the EPO was 47218 mU/mL. Work on `CCCCC/C=C\CCCO[Si](CCCCCN(C)C)(OCCC/C=C\CCCCC)OCCC/C=C\CCCCC` [Example 20] yielded an EPO of 2242992 mU/mL. For `CCCCC/C=C\CCCO[Si](CCCCCCN(C)C)(OCCC/C=C\CCCCC)OCCC/C=C\CCCCC` [Example 21], the EPO was 1470419 mU/mL. Work on `CCCCC/C=C\CCCC(CCC/C=C\CCCCC)CO[Si](CCCN(C)C)(OCC(CCC/C=C\CCCCC)CCC/C=C\CCCCC)OCC(CCC/C=C\CCCCC)CCC/C=C\CCCCC` [Example 22] yielded an EPO of 15075 mU/mL. `C=C(C)C1CC=C(CO[Si](CCCCN(C)C)(OCC2=CCC(C(=C)C)CC2)OCC2=CCC(C(=C)C)CC2)CC1` (stereo not shown) [Example 23] showed an EPO of 17488 mU/mL.
